Experimental data: US10342806B2, “Hormone treatment for age-related hearing loss-presbycusis” (priority 2014, dated 2019)
Peptide text beside a SMILES is read from it. * marks the point of attachment. Cbz = O=C(OCc1ccccc1)*

How the values were obtained:
Format in all cases: cell-based, human
NKCC1 [1] = assay: NKCC1 protein expression in HT-29 cells, Western blot
Description: Cell culture and buffers. […] Arch Oral Biol 52: 411-416, 2007). These include, for example, studies of COMM domain-containing protein 1, which is involved in NKCC1 ubiquitination and transcriptional regulation of epithelial Na^+ channels (ENaC) located in the apical membrane of polarized epithelial cells, in particular, cells in the colon, kidney, and lung, by ALD (Cohen, et al., Induced differentiation in HT29, a human colon adenocarcinoma cell line. J Cell Sci 112: […], 1999, Epple, et al., Early aldosterone effect in distal colon by transcriptional regulation of ENaC subunits. Am J Physiol Gastrointest Liver Physiol 278: G718-G724, 2000, Smith, et al., COMMD1 interacts with the COOH terminus of NKCC1 in Calu-3 airway epithelial cells to modulate NKCC1 ubiquitination. Am J Physiol Cell Physiol 305: C133-C146, 2013). HT-29 cells were grown in DMEM media (Invitrogen, Carlsbad Calif.) with 10% FBS and antibiotics. Cells were grown in a humidified 95%/5% CO2 incubator at 37° C. Experiments were performed at 70-80% confluence.
(§1) Western blot. Cell lysates were prepared in RIPA buffer (Pierce 89901; Thermo Scientific, Waltham, Mass.) with protease inhibitor cocktail (78430; Thermo Scientific). Cell samples were homogenized in buffer, followed by centrifugation at 2,000 rpm for 10 min at 4° C. Supernatants were subjected to Western blot analysis by loading 200 μg of protein per lane, after the protein concentrations were determined by Bradford protein assay. Proteins were fractionated by SDS-PAGE gel electrophoresis and transferred to a PVDF blotting membrane (Whatman, Piscataway, N.J.). The blot was incubated with primary antibodies against β-actin and Na—K-2C1 cotransport protein (Cell Signaling, Danvers Mass.); primary antibodies for p-SGK1, SGK1, pNedd4-2, and Nedd4-2 were utilized (concentration 1:1,000). The secondary antibody was horseradish peroxidaseconjugated goat anti-rabbit IgG (1:2,000; Cell Signaling).
Statistical analysis. Images from films were imported into Adobe Photoshop (v 5.0), and further processed using Adobe Photoshop CS and ImageJ (National Institutes of Health) for the densitometry analysis. Data are reported as means±SD. Statistical analyses were performed with PRISM 4.0 (GraphPad Software, San Diego Calif.). Differences were analyzed with a one- or a two-way repeated measures ANOVA as appropriate or a two-way ANOVA followed by Bonferroni post hoc analyses that were corrected for multiple comparisons. Values of P <0.05 were considered significant.

NKCC1 ubiquitination = assay: Immunoprecipitation (autoubiquitination assay) of NKCC1 in HT-29 cells; conditions: MG132 20 μM 2 h, then ALD 1 μM and/or GSK 650394 50 μM for 24 h
Method: Immunoprecipitation (autoubiquitination assay) and western blot analysis. An autoubiquitination assay was followed (Garg, et al., Effect of the Na—K-2Cl cotransporter NKCC1 on systemic blood pressure and smooth muscle tone. Am J Physiol Heart Circ Physiol 292: H2100-H2105, 2007). Cell extracts were prepared in a modified radioimmunoprecipitation assay 1 (RIPA) buffer, containing the following (in mM): 50 Tris·HCl at pH 7.4, 150 NaCl, 1 EDTA, and 1 dithiothreitol with 1% Nonidet P-40, 0.1% SDS; in a 1:200-diluted protease inhibitor cocktail (Sigma), containing the following (in mM): 1 PMSF, 10 NEM, and 0.1 iodoacetamide Immunoprecipitations were accomplished using a rabbit polyclonal anti-NKCC1 antibody (Cell Signaling). Antibody was bound to lysate with endogenous NKCC1, and then beads were added. Bound proteins were eluted in 1× SDS sample buffer, fractionated on an SDS-polyacrylamide gel, transferred onto a […] membrane (GE Healthcare, Piscataway, N.J.), and immunoblotted with anti-ubiquitin antibody visualized using enhanced chemiluminescence detection reagents (Pears, Shelton Conn.) according to the manufacturer's instructions.
Immunoblotting with anti-ubiquitin antibody was performed as described above.
ALD decreases the endogenous ubiquitination of NKCC1 and inhibition of SGK1 activation blocks this downregulation. […]

SGK1 and Nedd4-2 = SGK1 and Nedd4-2 phosphorylation in HT-29 cells, Western blot; conditions: 9 h
Method: FIG. 25 is a blot showing ALD modulation of NKCC1 via the ALD-SGK1-Nedd4-2 pathway. HT-29 cells were treated with ALD (1 μM) or ALD (1 μM)+GSK650394 (50 μM) for 9 h. Cell lysates were analyzed by Western blot as indicated. Blots are representative of 3 independent experiments. Left: controls. Middle: ALD increases the phosphorylations of SGK1 and Nedd4-2, concomitantly there is an increased induction of NKCC1 protein expression (1st row).
as §1

LC3-I, -II, and LAMP-2 = assay: Lysosome pathway markers in HT-29 cells, Western blot; conditions: ALD 1 μM, MG-132 20 μM, CQ 50 μM, 9 h
Method: FIG. 23(A) is a blot and showing ubiquitination, but not the lysosome pathway, is involved in the regulation of NKCC1 by ALD. To exclude the possibility that depletion of free ubiquitin by the prolonged MG-132 treatment triggered nonspecific inhibition of lysosome degradation of NKCC1 and investigate whether ALD is involved in a lysosome pathway, a parallel experiment with chloroquine (CQ) was performed. Here, the positive marks (+) indicate application of ALD (1 μM), MG132 (20 μM), CQ (50 μM), ALD+CQ, and MG132+CQ for 9 h. An autophagosome marker, autophagy-related gene 8 named as light chain 3 (LC3), and the lysosome-associated membrane protein 2 (LAMP-2) were used was indicators of lysosome pathway activation (phagocytic activity) under treatment with CQ.
as §1
Ubiquitination, but not the lysosome pathway, is involved in NKCC1 induction by ALD. A parallel experiment was performed with chloroquine (CQ), a lysosome inhibitor, to exclude the possibility that prolonged MG-132 treatment depleted free ubiquitin by nonspecific inhibition of lysosome degradation of NKCC1 and to confirm whether or not ALD is involved in a lysosome pathway. […]

NKCC1 [2] = assay: Tl-uptake in single HT-29 cells (FluxOR) for NKCC1 activity; conditions: 24 single HT-29 cells per condition
Description: Tl-uptake in single cells for the detection of NKCC1 activity. To measure NKCC1 activity, we used a fluorescence assay to assess cotransporter activity in single isolated HT-29 cells (Delpire & Austin, Kinase regulation of Na^+—K^+-2Cl^− cotransport in primary afferent neurons. J Physiol 588: 3365-3373, 2010, Geng, et al., The Ste20 kinases SPAK and OSR1 regulate NKCC1 function in sensory neurons. J Biol Chem 284: 14020-14028, 2009, Weaver, et al., A thallium-sensitive, fluorescence-based assay for detecting and characterizing potassium channel modulators in mammalian cells. J Biomol Screen 9: 671-677, 2004). HT-29 cells were incubated at 37° C./5% CO2 for 24 h before use. […] For the detection of fluorescence, the preincubation solution was removed, and the cells were treated with a 340.5 mosM hypertonic stimulus solution containing the following (in mM): (2.8 TISO4, 140 NaCl, 2 KCl, 2 CaCl2, 0.8 MgSO4, 5 glucose, 20 HEPES, 27 sucrose, 1 ouabain, and 2.7 probenecid) in the presence or absence of 20 μM bumetanide. […] FluxOR fluorescence (excitation/emission: 488/525 nm) was recorded after 90 s upon addition of 2.8 mM […] to the external medium. […]
Influence of ALD on NKCC1 transporter activity. […] To test this hypothesis, a more efficient and sensitive method, fluorescence Ion flux assays was adopted to measure NKCC1 transporter activity. […]

Na,K-ATPase = Na,K-ATPase mRNA expression in HT-29 cells; conditions: 5 mM, 24 hr, HT-29, compared to vehicle treatment; preliminary data
Method: FIG. 37 is a blot showing the up-regulation of Na, K-ATPase with NH4Cl. L is the DNA ladder, C is the control (vehicle treatment), NH4CL is treatment with 5 mM NH4Cl for 24 hours.
Ammonium chloride (NH4Cl) as part of a proposed treatment of presbycusis is based on the fact that NH4Cl has been used with FDA approval as a diuretic; NH4Cl increases NKCC1 protein expression and activity in several studies in other physiological systems (Jayakumar et al. 2008; Ikebe et al. 2001); c) NH4Cl can also increase Na, K-ATPase activity (Masui et al. 2002; Garcon et al. 2007). For large doses, NH4Cl can induce metabolic acidosis, but in lower doses taken orally, there are no significant side effects in the short term.

For `O=C(O)c1ccc(-c2c[nH]c3ncc(-c4ccccc4)cc23)cc1C1CCCC1` [GSK 650394], the “NKCC1 protein expression with ALD in the presence of SGK1 inhibitor” value (NKCC1 [1]; ALD 1 μM + GSK 650394 50 μM, 9 h) was “did not increase protein expression of NKCC1”, the “endogenous ubiquitinated NKCC1” value (NKCC1 ubiquitination) was “reduces the ability of ALD to suppress NKCC1 ubiquitination” and the “total protein expressions of SGK1 and Nedd4-2” value (SGK1 and Nedd4-2; ALD 1 μM + GSK 650394 50 μM) was “showed no differences”. The “phosphorylation of SGK1 and Nedd4-2” value (SGK1 and Nedd4-2; ALD 1 μM, GSK 650394 50 μM) was “blocked phosphorylation of SGK1 and Nedd4-2”.

With `CC(C)C[C@@H](C=O)NC(=O)[C@H](CC(C)C)NC(=O)[C@H](CC(C)C)NC(=O)OCc1ccccc1` [MG132] (Cbz-Leu-Leu-Leu-aldehyde) the “induction of NKCC1 protein expression” value (NKCC1 [1]; ALD 1 μM, MG-132 20 μM, CQ 50 μM, 9 h) was “induce NKCC1 protein expression similarly”, the NKCC1 protein expression (NKCC1 [1]; MG132, ALD 1 μM, 3, 6, or 9 h) was “effect of ALD on NKCC1 expression was mimicked by MG132” and the “lysosome pathway markers LC3II and LAMP-2 expression levels” value (LC3-I, -II, and LAMP-2) was “without increasing lysosome pathway markers”. For the same compound, the “bumetanide-sensitive Tl+ uptake fluorescence” value (NKCC1 [2]) was “identical enhancements similar to the ALD treatment alone”.

In the case of `Cl.N` [NH4Cl, Ammonium chloride], the “mRNA expression of Na,K-ATPase” value (Na,K-ATPase) is reported as “enhances the mRNA expression of Na,K-ATPase”.

For `CCN(CC)CCCC(C)Nc1ccnc2cc(Cl)ccc12` (centres unmarked) [CQ, chloroquine], the “lysosome pathway markers LC3II and LAMP-2 expression levels” value (LC3-I, -II, and LAMP-2) was “significant upregulation of LC3II and LAMP-2 expression levels”.

In the case of `COC(=O)[C@@H]1CC2=CC(=O)CC[C@]2(C)[C@@]23O[C@@H]2C[C@@]2(C)[C@@H](CC[C@@]24CCC(=O)O4)[C@H]13` [eplerenone], the “effect on ALD upregulation of NKCC1 protein expression” value (NKCC1 [1]; simultaneous ALD (1 μM) and eplerenone (20 μM)) is reported as “prevented the ALD upregulation of NKCC1 protein expression”.
